# Patent US11753407B2, “Compounds for treating spinal muscular atrophy” (PTC Therapeutics, Inc., priority 2012, dated 2023)
# Columns and labels:
# [1] = system: gems (Smn protein nuclear foci) in SMA patient fibroblast cells (GM03813); test: Gems count (Smn-dependent nuclear speckle count) assay; type: cell-based, human; conditions: SMA Type 1 patient cells, 48 hours, relative to DMSO (FIG. 9)
# Text: The level of Smn protein directly correlates with the amount of nuclear foci, also known as gems, produced upon staining the cell with a fluorescently labeled anti-Smn antibody (Liu and Dreyfuss, EMBO J., 1996, 15:3555). Gems are multi-protein complexes whose formation is nucleated by the Smn protein and the gems count assay is used to evaluate the level of Smn protein in the cell. As described herein, the gems count assay is used to quantify the level of Smn protein in SMA patient fibroblast cells treated with a test compound.
# Protocol: Cells are thawed and incubated in DMEM-10% FBS for 72 hours, then trypsinized, counted and resuspended to 100,000 cells/mL in DMEM-10% FBS. The cell suspension (2 mL) is plated in a 6-well cell culture plate with a sterile cover slip and incubated for 3 to 5 hours. Test compounds are serially diluted 3.16-fold in 100% DMSO to generate a 7-point dilution curve. […]
# Cell culture medium is aspirated from the wells containing cover slips and gently washed three times with cold PBS. […] The number of gems is counted per >150 nuclei and % activation is calculated using DMSO and 10 nM bortezomib as controls. For each test compound, the cells are examined at all wavelengths to identify test compounds with inherent fluorescence.
# [2] = system: neonatal SMA Δ7 homozygous knockout mice; test: Survival of neonatal Δ7 SMA mice; type: in vivo
# Description: The change in the number of surviving mice over time is used to determine whether treatment with a test compound improves survival.
# Protocol. SMA Δ7 homozygous knockout mice are dosed intraperitoneally (IP) with test compound or vehicle (100% DMSO) QD from PND 3 until the dose regimen is switched to an oral dose BID in 0.5% hydroxypropylmethyl cellulose (HPMC) with 0.1% Tween-80 at a dose 3.16-fold higher than the dose used for IP and later switched to an oral dose QD in 0.5% hydroxypropylmethyl cellulose (HPMC) with 0.1% Tween-80 at a dose 6.32-fold higher than the dose used for IP. The number of surviving mice in each group is recorded every day and plotted as a percent of total number of mice. Tissues of SMA Δ7 and age-matched heterozygous mice are collected for the measurement of Smn protein levels and processed as detailed in Example 10. The total protein normalized Smn protein levels measured in the tissues are plotted as a percent of those in the age-matched heterozygous mice tissues, with the Smn level in heterozygous mice set to 100 percent. The level of Smn protein in the test compound treated mice tissue relative to that in heterozygous mice tissue is indicated as a percent value above each bar in the graph.
# [3] = system: SMN2 mRNA in GM03813 SMA patient cells; test: Endogenous SMN2 mRNA end-point semi-quantitative RT-PCR splicing assay in cultured cells; type: cell-based, human; conditions: Type 1 SMA patient fibroblasts, increasing concentrations, 24 hr, end-point RT-PCR (FIG. 5)
# Description: The endpoint reverse transcription-PCR splicing assay is used to visualize and quantify the levels of the full length and Δ7 SMN2 mRNA in primary cells and cell lines containing the SMN2 gene treated with a test compound.
# Protocol. GM03813 SMA patient cells (5,000 cells/well) are seeded in 200 μL of cell culture medium (DMEM plus 10% FBS) in 96-well flat-bottom plates and the plate is immediately swirled to ensure proper dispersal of cells, forming an even monolayer of cells. Cells are allowed to attach for at least 4-6 hrs. Test compounds are serially diluted 3.16-fold in 100% DMSO to generate a 7-point concentration curve. A solution of test compound (1 μL, 200× in DMSO) is added to each test well and 1 μL DMSO is added to each control well. The plate is incubated for 24 hrs in a cell culture incubator (37° C., 5% CO2, 100% relative humidity). The cells are then lysed in Cells-To-Ct lysis buffer and the lysate is stored at −80° C.
# SMN FL and Δ7 mRNA are identified using the following primers in Table 6. These primers hybridize to a nucleotide sequence in exon 6 (SMN Forward C, SEQ ID NO. 11) (nucleotide 43 to nucleotide 63) and exon 8 (SMN Reverse C, SEQ ID NO. 12) (nucleotide 51 to nucleotide 73) common to human SMN1 and SMN2 mRNA. Since the SMA patient cells used in Example 4 contain only the SMN2 gene, RT-PCR can visualize and quantify only SMN2 full-length and SMN2 Δ7 mRNA.
# To synthesize cDNA, 5 μL of lysate, 4 μL of 5× iScript reaction mix, 1 μL of reverse transcriptase, and 10 μL of water are combined and incubated 5 min at 25° C. followed by 30 min at 42° C., followed by 5 min at 85° C. The cDNA solution is stored at −20° C.
# To perform endpoint PCR, 5 μL of cDNA, 0.2 μL of 100 μM forward primer, 0.2 μL of 100 μM reverse primer, and 22.5 μL of polymerase super mix are combined in a 96 well semiskirted PCR plate. PCR is carried out at the following temperatures for the indicated time: Step 1: 94° C. (2 min), Step 2: 94° C. (30 sec), Step 3: 55° C. (30 sec), Step 4: 68° C. (1 min), then repeat Steps 2 to 4 for a total of 33 cycles, then hold at 4° C.
# 10 μL of each PCR sample is electrophoretically separated on a 2% agarose E-gel for 14 minutes stained with double-stranded DNA (dsDNA) staining reagents (e.g., ethidium bromide) and visualized using a gel imager.
SMILES,gems (nuclear speckle count) [1],"survival ([2]; IP QD PND 3 to PND 30, then orally BID from PND 31 until study end (FIG. 15a))",SMN2 FL mRNA [3],SMN2 Δ7 mRNA [3],"survival ([2]; IP QD PND 3 to PND 23, then orally BID from PND 24 until study end (FIG. 15b))"
"COc1ccc(-c2cc(=O)n3cc(N4CCNCC4)ccc3n2)cc1OC [Cpd 6, 2-(3,4-dimethoxyphenyl)-7-(piperazin-1-yl)-4H-pyrido[1,2-a]pyrimidin-4-one]",progressively more gems,improved compared to vehicle treated mice,progressively more SMN2 FL mRNA,less SMN2 Δ7 mRNA,
"Cc1cn2nc(-c3cc(=O)n4cc(N5CCN(C)CC5)ccc4n3)cc2c(C)n1 [Cpd 170, 2-(4,6-dimethylpyrazolo[1,5-a]pyrazin-2-yl)-7-(4-methylpiperazin-1-yl)-4H-pyrido[1,2-a]pyrimidin-4-one]",progressively more gems,,progressively more SMN2 FL mRNA,less SMN2 Δ7 mRNA,improved compared to vehicle treated mice
